Test results from PubChem BioAssay (NCI).
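Dose response: 5 concentrations. Exposure: 48 h. Format: 96-well plates. Endpoint: linear interpolation; highest concentration if not reached. Here, GI50 denotes the concentration required for 50% inhibition of growth. TGI: concentration producing complete growth inhibition.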

Assays:
Assay in all cases: inhibition of tumour cell growth, NCI panel, 48 h
HL-60(TB) leukemia = test system: HL-60(TB) leukemia
PC-3 prostate = test system: PC-3 prostate
COLO 205 colon = test system: COLO 205 colon
A498 renal = test system: A498 renal
UO-31 renal = test system: UO-31 renal
SK-MEL-2 melanoma = test system: SK-MEL-2 melanoma
MOLT-4 leukemia = test system: MOLT-4 leukemia
HCT-15 colon = test system: HCT-15 colon
DU-145 prostate = test system: DU-145 prostate
HOP-92 NSCLC = test system: HOP-92 NSCLC
SNB-75 CNS = test system: SNB-75 CNS
OVCAR-5 ovarian = test system: OVCAR-5 ovarian
NCI/ADR-RES ovarian = test system: NCI/ADR-RES ovarian
OVCAR-4 ovarian = test system: OVCAR-4 ovarian
OVCAR-8 ovarian = test system: OVCAR-8 ovarian
NCI-H460 lung = test system: NCI-H460 lung
CCRF-CEM leukemia = test system: CCRF-CEM leukemia
MDA-MB-435 = test system: MDA-MB-435
HS 578T breast = test system: HS 578T breast
KM12 colon = test system: KM12 colon
RPMI-8226 leukemia = test system: RPMI-8226 leukemia
SF-268 CNS = test system: SF-268 CNS
BT-549 breast = test system: BT-549 breast
SK-MEL-28 melanoma = test system: SK-MEL-28 melanoma
HCC-2998 colon = test system: HCC-2998 colon
SF-295 CNS = test system: SF-295 CNS
CAKI-1 renal = test system: CAKI-1 renal
786-0 renal = test system: 786-0 renal
SK-OV-3 ovarian = test system: SK-OV-3 ovarian
U251 CNS = test system: U251 CNS
MDA-MB-231 breast = test system: MDA-MB-231 breast
SF-539 CNS = test system: SF-539 CNS
SW-620 colon = test system: SW-620 colon
MALME-3M melanoma = test system: MALME-3M melanoma
A549 NSCLC = test system: A549 NSCLC
TK-10 renal = test system: TK-10 renal
LOX IMVI melanoma = test system: LOX IMVI melanoma
UACC-62 melanoma = test system: UACC-62 melanoma
UACC-257 melanoma = test system: UACC-257 melanoma
HOP-62 NSCLC = test system: HOP-62 NSCLC
RXF 393 renal = test system: RXF 393 renal
K-562 leukemia = test system: K-562 leukemia
IGROV1 ovarian = test system: IGROV1 ovarian
HCT-116 colon = test system: HCT-116 colon
SN12C renal = test system: SN12C renal
HT29 colon = test system: HT29 colon
T-47D breast = test system: T-47D breast
NCI-H226 lung = test system: NCI-H226 lung
M14 melanoma = test system: M14 melanoma
SR leukemia = test system: SR leukemia
OVCAR-3 ovarian = test system: OVCAR-3 ovarian
NCI-H522 lung = test system: NCI-H522 lung
ACHN renal = test system: ACHN renal
EKVX NSCLC = test system: EKVX NSCLC
SNB-19 CNS = test system: SNB-19 CNS
SK-MEL-5 melanoma = test system: SK-MEL-5 melanoma

Question: Which results are given for `CN(C)CCCNc1c2ccc(Cl)cc2nc2c1oc1ccc(Cl)cc12`?
Answer: GI50 (HL-60(TB) leukemia): 1.98 µM; TGI (HL-60(TB) leukemia): 4.81 µM; GI50 (PC-3 prostate): 1.81 µM; TGI (PC-3 prostate): 3.86 µM; GI50 (COLO 205 colon): 4.58 µM; TGI (COLO 205 colon): 20 µM; GI50 (A498 renal): 15.3 µM; TGI (A498 renal): 31.4 µM; GI50 (UO-31 renal): 4.13 µM; TGI (UO-31 renal): 18.3 µM; GI50 (SK-MEL-2 melanoma): 13.6 µM; TGI (SK-MEL-2 melanoma): 26.8 µM; GI50 (MOLT-4 leukemia): 3.14 µM; TGI (MOLT-4 leukemia): 11.8 µM; GI50 (HCT-15 colon): 2.1 µM; TGI (HCT-15 colon): 5.71 µM; GI50 (DU-145 prostate): 3.01 µM; TGI (DU-145 prostate): 9.1 µM; GI50 (HOP-92 NSCLC): 1.41 µM; TGI (HOP-92 NSCLC): 7.69 µM; GI50 (SNB-75 CNS): 5.25 µM; TGI (SNB-75 CNS): 19.2 µM; GI50 (OVCAR-5 ovarian): 7.03 µM; TGI (OVCAR-5 ovarian): 19.7 µM; GI50 (NCI/ADR-RES ovarian): 2.31 µM; TGI (NCI/ADR-RES ovarian): 6.59 µM; GI50 (OVCAR-4 ovarian): 1.67 µM; TGI (OVCAR-4 ovarian): 3.32 µM; GI50 (OVCAR-8 ovarian): 2.07 µM; TGI (OVCAR-8 ovarian): 4.45 µM; GI50 (NCI-H460 lung): 2.1 µM; TGI (NCI-H460 lung): 4.8 µM; GI50 (CCRF-CEM leukemia): 3.42 µM; TGI (CCRF-CEM leukemia): 12.2 µM; GI50 (MDA-MB-435): 2.18 µM; TGI (MDA-MB-435): 5.57 µM; GI50 (HS 578T breast): 8.82 µM; TGI (HS 578T breast): 28.2 µM; GI50 (KM12 colon): 2.65 µM; TGI (KM12 colon): 8.35 µM; GI50 (RPMI-8226 leukemia): 2.58 µM; TGI (RPMI-8226 leukemia): 7.84 µM; GI50 (SF-268 CNS): 3.45 µM; TGI (SF-268 CNS): 15.3 µM; GI50 (BT-549 breast): 11.4 µM; TGI (BT-549 breast): 25 µM; GI50 (SK-MEL-28 melanoma): 14 µM; TGI (SK-MEL-28 melanoma): 27.2 µM; GI50 (HCC-2998 colon): 1.84 µM; TGI (HCC-2998 colon): 3.38 µM; GI50 (SF-295 CNS): 4.72 µM; TGI (SF-295 CNS): 17.1 µM; GI50 (CAKI-1 renal): 1.49 µM; TGI (CAKI-1 renal): 2.9 µM; GI50 (786-0 renal): 1.65 µM; TGI (786-0 renal): 3.25 µM; GI50 (SK-OV-3 ovarian): 10.1 µM; TGI (SK-OV-3 ovarian): 21.7 µM; GI50 (U251 CNS): 1.76 µM; TGI (U251 CNS): 3.35 µM; GI50 (MDA-MB-231 breast): 2.19 µM; TGI (MDA-MB-231 breast): 5.94 µM; GI50 (SF-539 CNS): 1.81 µM; TGI (SF-539 CNS): 3.24 µM; GI50 (SW-620 colon): 1.64 µM; TGI (SW-620 colon): 3.63 µM; GI50 (MALME-3M melanoma): 4.76 µM; TGI (MALME-3M melanoma): 20.5 µM; GI50 (A549 NSCLC): 1.67 µM; TGI (A549 NSCLC): 3.18 µM; GI50 (TK-10 renal): 13.1 µM; TGI (TK-10 renal): 26 µM; GI50 (LOX IMVI melanoma): 1.89 µM; TGI (LOX IMVI melanoma): 3.4 µM; GI50 (UACC-62 melanoma): 16.4 µM; TGI (UACC-62 melanoma): 31.6 µM; GI50 (UACC-257 melanoma): 12.3 µM; TGI (UACC-257 melanoma): 25.5 µM; GI50 (HOP-62 NSCLC): 5.21 µM; TGI (HOP-62 NSCLC): 19.6 µM; GI50 (RXF 393 renal): 2.68 µM; TGI (RXF 393 renal): 8.4 µM; GI50 (K-562 leukemia): 2.73 µM; GI50 (IGROV1 ovarian): 3.66 µM; TGI (IGROV1 ovarian): 15.9 µM; GI50 (HCT-116 colon): 1.43 µM; TGI (HCT-116 colon): 2.79 µM; GI50 (SN12C renal): 1.72 µM; TGI (SN12C renal): 3.51 µM; GI50 (HT29 colon): 1.69 µM; TGI (HT29 colon): 3.5 µM; GI50 (T-47D breast): 13.1 µM; TGI (T-47D breast): 29.2 µM; GI50 (NCI-H226 lung): 6.32 µM; TGI (NCI-H226 lung): 20.9 µM; GI50 (M14 melanoma): 1.71 µM; TGI (M14 melanoma): 3.78 µM; GI50 (SR leukemia): 3.04 µM; TGI (SR leukemia): 10.1 µM; GI50 (OVCAR-3 ovarian): 2.24 µM; TGI (OVCAR-3 ovarian): 4.99 µM; GI50 (NCI-H522 lung): 4.22 µM; TGI (NCI-H522 lung): 17 µM; GI50 (ACHN renal): 1.7 µM; TGI (ACHN renal): 3.23 µM; GI50 (EKVX NSCLC): 4.76 µM; TGI (EKVX NSCLC): 17.3 µM; GI50 (SNB-19 CNS): 5.97 µM; TGI (SNB-19 CNS): 18.8 µM; GI50 (SK-MEL-5 melanoma): 16.3 µM; TGI (SK-MEL-5 melanoma): 29.8 µM
